Tests used:
[1] = system: neuromuscular preparations (hemiinterseptum neuromuscule); assay: Muscle relaxation action: inhibition of nerve-evoked contraction of mouse neuromuscular preparation; type: cell-based, ddY mice; conditions: read-out: Muscle relaxation action IC50 (90% reliance)
Procedure: Muscle relaxation action IC50)
(§1) To prepare neuromuscular preparations ddY mice 6 to 10 weeks old weighing 27.0 to 42.0 g were decapitated, venesected, and the hemiinterseptum neuromuscule was removed. This preparation was suspended by applying 1 gram of a strain in Krebs-Henseleit's solution at 36 ±1° C., through which a mixed gas of carbon dioxide/oxygen (5:95) was passed, an electric shock (0.4 to 0.5V, 0.2 Hz, […].) was applied to the nerve by platinum electrodes, and the resulting short contraction reaction was detected by an isometric transducer (Nippon Koden Sha, Japan) and recorded by a biophysiograph system (San-Ei, Japan). An average of 12 contraction height data obtained one minute prior to the administration of a test compound was used as a control. The test compound was accumulatively administered at two minute intervals, and the contraction height two minutes after each administration was compared with the control, to calculate the percentage of inhibition. To ensure the reliability of the tests, usually four measurements were used for each administration. The IC50 value was obtained on a line linearized by the method of least aqueous from a scope from a 10 to 60% inhibition in a log dose-inhibition curve.

[2] = system: neuromuscular preparations (hemiinterseptum neuromuscule); assay: Muscle relaxation action under a diabetic condition (neuromuscular preparations from alloxan-treated mice); type: cell-based; conditions: Mus musculus; alloxan diabetic ddY mice 8 to 11 weeks old, blood glucose 310 to 460 mg/dl; parentheses: 90% reliance
Procedure: as §1, with “administration.” for “administration. The IC50 value was obtained on a line linearized by the method of least aqueous from a scope from a 10 to 60% inhibition in a log dose-inhibition curve.”
Muscle relaxation action under a diabetic condition IC50
Alloxan monohydrate (Nakarai Kagaku, Japan) was administered to the tail vein of ddY mice 4 to 5 weeks old, in a dose of 85 mg/kg, and the blood glucose level was monitored starting at the 28th day, by a glucose analyzer from the administration of alloxan (Bechmann Type II). Mice 8 to 11 weeks old and weighing 19.0 to 36.0 g, and having a blood glucose level of 310 to 460 mg/dl, were chosen and used to prepare neuromuscular preparations as described above.

[3] = ddY mice 6 to 10 weeks old, Krebs-Henseleit's solution, 36 ±1° C., contraction height two minutes after each cumulative administration, parentheses: 90% reliance

SMILES | IC50 [1, 3] | IC50 [2] | IC50 [1]
C[N+](C)(C)CCCCCCCCCC[N+](C)(C)C [Decamethonium, reference compound] | 101 µM | 131 µM | 
C[N+](C)(C)CCCCc1ccc(CCCC[N+](C)(C)C)cc1 [Example 1, 1,4-Bis(4-trimethylammoniobutyl)benzene diiodide] |  | 25.9 µM | 22.8 µM
C[N+](C)(C)CCCC(=O)c1ccc(C(=O)CCC[N+](C)(C)C)cc1 [Example 2, 1,4-Bis(4-trimethylammoniobutyryl)benzene diiodide] |  | 32.7 µM | 26 µM
C[N+](C)(C)CCCC(O)c1ccc(C(O)CCC[N+](C)(C)C)cc1 (stereo not shown) [Example 3, 1,4-Bis(1-hydroxy-4-trimethylammoniobutyl)benzene diiodide] | 209 µM |  | 
CC(=O)OC(CCC[N+](C)(C)C)c1ccc(C(CCC[N+](C)(C)C)OC(C)=O)cc1 (stereo not shown) [Example 4, 1,4-Bis(1-acetoxy-4-trimethylammoniobutyl)benzene diiodide] |  |  | 450 µM
CC[N+](CC)(CC)CCCc1ccc(CCC[N+](CC)(CC)CC)cc1 [Example 6, 1,4-Bis(3-triethylammoniopropyl)benzene diiodide] | 176 µM |  | 
C[N+]1(CCCc2ccc(CCC[N+]3(C)CCCCC3)cc2)CCCCC1 [Example 7, 1,4-Bis3-(1-methyl-1-piperidinio)propyl]benzene dibromide] |  |  | 119 µM
c1cc[n+](CCCc2ccc(CCC[n+]3ccccc3)cc2)cc1 [Example 8, 1,4-Bis[3-(1-pyridinio)propyl]benzene dibromide] | 207 µM |  | 
CC[N+](CC)(CC)CCCCCc1ccc(CCCCC[N+](CC)(CC)CC)cc1 [Example 10, 1,4-Bis(5-triethylammoniopentyl)benzene diiodide] | 11.2 µM |  | 
C[N+]1(CCCCCc2ccc(CCCCC[N+]3(C)CCCCC3)cc2)CCCCC1 [Example 11] | 60.7 µM |  | 
C[N+](C)(C)CCOCc1ccc(COCC[N+](C)(C)C)cc1 [Example 12, 1,4-Bis(2-trimethylammonioethoxymethyl)benzene diiodide] |  |  | 750 µM
C[N+](C)(C)CC(CCCc1ccc(CCCC(C[N+](C)(C)C)C[N+](C)(C)C)cc1)C[N+](C)(C)C [Example 13] | 1440 µM |  | 
C[N+](C)(C)CCCCCCCCc1ccccc1 [Example 15, N,N,N-Trimethyl-8-phenyloctylammonium p-tosylate] | 252 µM |  | 
C[N+](C)(C)CCCCc1cccc(CCCC[N+](C)(C)C)c1 [Example 16, 1,3-Bis(4-trimethylammoniobutyl)benzene diiodide] |  |  | 531 µM
C[N+](C)(C)CCCCc1ccccc1CCCC[N+](C)(C)C [Example 17, 1,2-Bis(4-trimethylammoniobutyl)benzene diiodide] |  |  | 59.7 µM
CC[N+](CC)(CC)CCCCc1ccc(CCCC[N+](CC)(CC)CC)cc1 [Example 18, 1,4-Bis(triethylammoniobutyl)benzene diiodide] | 52.4 µM | 51.1 µM | 
C[N+]1(CCCCc2ccc(CCCC[N+]3(C)CCCCC3)cc2)CCCCC1 [Example 19, 1,4-Bis[4-(1-methyl-1-piperidinio)butyl]benzene dibromide] | 95.9 µM |  | 

SMILES | IC50 [1, 3] | IC50 [2] | IC50 [1]
C[N+](C)(C)CCCCCCc1ccc(CCCCCC[N+](C)(C)C)cc1 [Example 20, 1,4-Bis(6-trimethylammoniohexyl)benzene diiodide] |  | 21.7 µM | 15.9 µM
CC[N+](CC)(CC)CCCCCCc1ccc(CCCCCC[N+](CC)(CC)CC)cc1 [Example 21, 1,4-Bis(6-triethylammoniohexyl)benzene diiodide] | 6.81 µM | 7.66 µM | 
C[N+]1(CCCCCCc2ccc(CCCCCC[N+]3(C)CCCCC3)cc2)CCCCC1 [Example 22, 1,4-Bis[6-(1-methyl-1-piperidinio)hexyl]benzene dibromide] | 17.3 µM | 21.8 µM | 
C[N+](C)(C)CCCCc1ccc(CCCC[N+](C)(C)C)c([N+](=O)[O-])c1 [Example 23, 1,4-Bis(4-trimethylammoniobutyl)-2-nitrobenzene diiodide] |  | 11.9 µM | 12.7 µM
C[N+](C)(C)CCC#Cc1ccc(C#CCC[N+](C)(C)C)cc1 [Example 25, 1,4-Bis(4-trimethylammonio-1-butynyl)benzene diiodide] |  |  | 110 µM
CC[N+](CC)(CC)CCCCCCc1ccc(CCCCCC[N+](CC)(CC)CC)c([N+](=O)[O-])c1 [Example 26, 1,4-Bis(6-triethylammoniohexyl)-2-nitrobenzene diiodide] | 4.52 µM |  | 
CC[N+](CC)(CC)CCCCCCCc1ccc(CCCCCCC[N+](CC)(CC)CC)cc1 [Example 27, 1,4-Bis(7-triethylammonioheptyl)benzene diiodide] | 5.96 µM |  | 
C[N+](C)(C)CCCSc1ccc(SCCC[N+](C)(C)C)cc1 [Example 28, 1,4-Bis(3-trimethylammoniopropylthio)benzene diiodide] | 3.89 µM |  | 
C[N+](C)(C)CCC[S+]([O-])c1ccc([S+]([O-])CCC[N+](C)(C)C)cc1 (stereo not shown) [Example 29, 1,4-Bis(3-trimethylammoniopropylsulfinyl)benzene diiodide] | 5.46 µM |  | 
C[N+](C)(C)CCCS(=O)(=O)c1ccc(S(=O)(=O)CCC[N+](C)(C)C)cc1 [Example 30, 1,4-Bis(3-trimethylammoniopropylsulfonyl)benzene diiodide] | 9.44 µM |  | 
C[N+](C)(C)CCCc1ccc2cc(CCC[N+](C)(C)C)ccc2c1 [Example 31, 2,6-Bis(3-trimethylammoniopropyl)naphthalene diiodide] | 186 µM |  | 
CC[N+](CC)(CC)CCCc1ccc2cc(CCC[N+](CC)(CC)CC)ccc2c1 [Example 32, 2,6-Bis(3-triethylammoniopropyl)naphthalene diiodide] | 79.1 µM |  | 
CC[N+](CC)(CC)CCCCCSc1ccc(SCCCCC[N+](CC)(CC)CC)cc1 [Example 33, 1,4-Bis(5-triethylammoniopentylthio)benzene diiodide] | 1.5 µM |  | 
C[N+](C)(C)CCCc1ccc(-c2ccc(CCC[N+](C)(C)C)cc2)cc1 [Example 34, 4,4'-Bis(3-trimethylammoniopropyl)biphenyl diiodide] |  |  | 132 µM
CC[N+](CC)(CC)CCCc1ccc(-c2ccc(CCC[N+](CC)(CC)CC)cc2)cc1 [Example 35, 4,4'-Bis(3-triethylammoniopropyl)biphenyl diiodide] | 24.9 µM |  | 
CC[N+](CC)(CC)CCCCCCCCc1ccc(CCCCCCCC[N+](CC)(CC)CC)cc1 [Example 36, 1,4-Bis(8-triethylammoniooctyl)benzene diiodide] | 114 µM |  | 
C[N+](C)(C)CCOC(=O)CCC(=O)OCC[N+](C)(C)C [Succinylcholine, reference compound] | 25.2 µM | 19.3 µM | 

Source: US5093370A, “Quaternary ammonium compounds having muscle relaxation activity” (priority 1989, dated 1992)
